Experimental data reported in US12268676B2, “Antiviral applications of picolinic acid and its derivatives” (INDIAN INSTITUTE OF SCIENCE, priority 2021, dated 2025).

How the values were obtained:
A549 cells = test: Cytotoxicity of PA, Alamar Blue cell viability; format: cell-based, human
Experimental: Cytotoxicity of picolinic acid (PA) was tested by incubating human lung epithelial cells (A549 cells) with increasing concentrations of PA for up to 72 hrs and cell viability was measured at every 12 hr time intervals using Alamar Blue cell viability reagent (FIG. 1A). A549 cells were procured from ATCC, Manassas, Va., USA.
A549 cells were seeded in 96-well cell culture dishes and 24 hr later treated with 0.02, 0.2, 2, and 20 mM PA in triplicates. Cells were then incubated at 37° C., 5% CO2, and cytotoxicity was measured at 12, 24, 36, 48, 60, and 72 hr post-treatment using AlamarBlue™ Cell Viability Reagent (DAL 1025, Thermo Fisher) as per manufacturer's instructions.

[1] = system: Herpes Simplex virus 1 (HSV1 Luc); test: microbe, parasite or virus in culture; format: cell-based; details: Human alphaherpesvirus 1, A549, 48 h, read-out: inhibition in reporter virus assay
[2] = system: Influenza A viruses (IAVs); test: microbe, parasite or virus in culture; format: cell-based, Influenza A virus
[3] = system: wild type Zika virus (ZIKV) Cambodia strain; test: ZIKV infection, western blot of flavivirus envelope protein; format: cell-based; details: 2 mM PA, 0.1 MOI, 48 hr post infection (FIG. 7L)
PR8 WT virus particles = system: PR8 WT virus particles; parameters: species or system Influenza A virus
CVB3 = CVB3 multi-dose infection, plaque assay of supernatants; format: cell-based, Coxsackie virus B3; details: Vero cells, increasing concentrations of PA, 0.1 MOI, 48 hr p.i.
Description: Further, Vero cells were pre-treated with increasing concentrations of PA as indicated and infected with 0.1 MOI CVB3 in the presence of drugs. 48 hr p.i, cell culture supernatants were used to quantify infectious virus by plaque assay.

Rota virus RRV strain = test: Rotavirus RRV infection of HEK cells, IFA for VP6; format: cell-based; details: HEK cells pre-treated with 2 mM PA, 12 hr
Experimental: Percentage positive cells was quantified using ImageJ/Fiji.
Rotavirus RRV infection: A working concentration of Rota virus was prepared by diluting the virus stock 2-fold with complete DMEM containing a final concentration of 2 μg/mL TPCK trypsin. The mixture was incubated at 37° C. for 30 min and further diluted 2-fold in DMEM without serum. This mixture was then used to infect HEK cells that were pre-treated for 3 hr with 2 mM PA. A volume of 100 μL per well, in a 24 well plate was used for 1 hr adsorption, after which the wells were topped up with 400 μL serum free media containing PA. After 12 hr, cells were fixed with 4% formalin and immunolabeled with primary mouse anti VP6, and anti-mouse secondary Alexa Fluor 488 antibodies to detect virus infected cells by IFA.

AAV6-GFP particles = test: AAV6-GFP infection of HEK cells, flow cytometry; format: cell-based, Adeno Associated Virus-6; details: 2 mM PA, all virus volumes tested, 48 hr p.i.
M. smegmatis cells = test: Bacterial toxicity assay, OD600; format: cell-based, Mycobacterium smegmatis; details: up to 24 hr, least concentration tested
Experimental: (§1) Since most of the naked viruses tested were not inhibited by PA, whether PA would be effective against TM4 mycobacteriophages. M. smegmatis cells in a 48 well plate were treated with increasing concentrations of PA as indicated and OD600 measurements were taken periodically up to 24 hr. […] For the antiviral assay, 1 mM PA was either added at the start of experiment or 3 hr prior to infection. In either case, there was no protection from TM4 mycobacteriophage induced cell death (FIG. 12, panel G).
Bacterial toxicity assay: PA stock solution of 1M concentration was prepared in sterile deionized water and diluted to obtain different concentrations (1 mM, 5 mM, 10 Mm, 20 mM, and 40 mM), in a 48-well plate. A total of 2×10^5 cells of M. smegmatis were added to each of the wells. The 48-well plate was placed in a rotary shaker incubator at 37° C. for 24 h. Readings were taken periodically using a Tecan Spark multi-mode plate reader at 600 nm.

TM4 mycobacteriophage = test: Effect of drug on TM4 mycobacteriophage; format: cell-based; details: 10 MOI
Experimental: as §1
Effect of drug on TM4 mycobacteriophage: To study the effect of the drug on TM4 phage growth and activity, 7H9 broth supplemented with ADC and CaCl2 was prepared and inoculated with 100 μL of log-phase secondary bacterial culture (OD 1-2) per 5 mL of the media. 1 mM of the drug was added to culture tubes at the appropriate time (either at the start of the experiment or 3 hr before adding the phage in the mid-log phase). The cultures were then incubated at 37° C. with rotary shaking at 180 pm. For phage-treated samples, a 10 MOI TM4 mycobacteriophage was added at a specified interval of the mid-log phase. […] Readings were taken using a spectrophotometer (Jenway 7205 UV/Visible Spectrophotometer) at 600 nm against a media blank.

[4] = system: clathrin mediated endocytosis; test: Transferrin uptake assay, flow cytometry; details: A549, 2 mM PA, 1 hr pulse with 25 μg/mL Tf647

With `O=C(O)c1ccccn1` [PA, pyridine-2-carboxylic acid] as the compound, how does the cell viability (A549 cells; 20 mM PA, 36 hr post treatment) read?
The cell viability was “loss of cell viability”.

What about the “drug concentration non-toxic to cells” value (A549 cells; over the period of 72 hr) of the same compound?
Its value is “up to 2 mM”.

What about the inhibition at 2000 µM [1] of the same compound?
The inhibition at 2000 µM was 80 to 90%.

And the “reduction in virus titer” value [2]?
The value was 3 fold.

What about the inhibition at 2000 µM ([2]; Influenza A virus, PR8, MDCK2, 48 h, read-out: maximum inhibition of infectious virus (plaque assay)) of the same compound?
Its inhibition at 2000 µM is 50%.

And the “flavivirus envelope protein by western blot” value [3]?
Its value is “inhibition”.

And the “virion structural integrity by TEM compared to untreated control” value (PR8 WT virus particles)?
Its value is “severe disruption of viral envelope”.

What about the “infectious virus in supernatants (plaque assay)” value (CVB3) of the same compound?
The value was “did not imply any differences”.

And the “effect on virus entry (VP6 positive cells, IFA)” value (Rota virus RRV strain)?
Its value is “did not have any effects”.

And the “decrease in GFP positive cells” value (AAV6-GFP particles)?
Its value is 5-10%.

And the “non-toxic concentration (OD600)” value (M. smegmatis cells)?
The value was 1 mM.

What about the “protection from TM4 mycobacteriophage induced cell death” value (TM4 mycobacteriophage; 1 mM PA added 3 hr prior to infection) of the same compound?
The value was “no protection”.

And the “protection from TM4 mycobacteriophage induced cell death” value (TM4 mycobacteriophage; 1 mM PA added at the start of experiment)?
The value was “no protection”.

And the “cellular uptake of transferrin (Tf647 positive cells)” value [4]?
The value was “did not show any differences”.
